The values that follow come from ChEMBL document CHEMBL1201862, “PubChem BioAssay data set” (2004).

Some test systems named below: LXFL 529; M19-MEL; SNB-78; XF498; T47D; DMS-114; HOP-18; KM-20L2.
Holding throughout (experiment): NCI tumour cell line growth inhibition, 48 h

Where a name gives a salt, the structure may show the parent alone.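 Grown in 96-well plates, cells were treated for 48 hours with each compound at five concentrations. Insufficient inhibition: endpoint recorded as highest concentration tested. GI50: concentration for 50% inhibition of growth.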 Active and inactive are the calls of the source. Rule as the data show it: active = GI50 up to about 1.1 µM and inactive = higher.

In the case of `C=CCC(OCCOCC)c1cc(OCCOCC)ccc1OC` (stereo not given), the GI50 with LXFL 529, in the assay with M19-MEL, in the assay with SNB-78 and with XF498 was > 100 µM (inactive) in each case.
For the compound `CCN(CC)CCNc1ccc2ncn3c4c(OC)ccc(O)c4c(=O)c1c23`, the GI50 with T47D was > 100 µM (inactive).
As for `CN(C)CCNCCCNc1c2ccccc2nc2cccc([N+](=O)[O-])c12`, the GI50 with T47D was 0.0387 µM (active).
On to `COC(=O)c1c(C#N)c(N)nc2c1CCC2`, for which, in the assay on T47D, the GI50 is 75.5 µM (inactive).
With `C1CN2CCO[SiH](O1)OCC2`, the GI50 in the assay on DMS-114, in the assay on HOP-18, with KM-20L2, in the assay on LXFL 529, in the assay with M19-MEL and in the assay on SNB-78 was > 100 µM (inactive) in each case.
As for `S=C1NCN2CCN(CC2)CNC(=S)C(=S)NCN2CCN(CC2)CNC1=S`, the GI50 in the assay with T47D is > 100 µM (inactive).
On to `CC1=NC(=Cc2ccc(O)cc2)C(=O)N1n1c(-c2ccccc2)nc2ccccc2c1=O`, for which the GI50 in the assay on T47D was > 100 µM (inactive).
Still for that read-out and setting: the value for `NCCS` [CYSTEAMINE HYDROCHLORIDE] was > 100 µM (inactive).
On to `COc1cc(NCCC2CCCCN2)c2ncccc2c1` (stereo not given), for which the GI50 in the assay on T47D is 0.397 µM (active).
The same measure, in the same setting: the same measure for `CCOC(=O)C1CCCCN1C(=O)Cc1c[nH]c2ccccc12` (stereo not given): 37 µM (inactive).
In the case of `CC1(C)C(/C=N\O)=[N+]([O-])C(C)(C)N1O`, in the assay on T47D, the GI50 is > 100 µM (inactive).
Turning to `CN(C)C(Cc1c[nH]cn1)C(=O)N1CCCC1C(N)=O` (stereo not given), the GI50 with T47D is > 100 µM (inactive).
`Brc1ccc(C2SCc3nc4ccccc4n32)cc1` (stereo not given): the GI50 in the assay with HOP-18 is 45.5 µM (inactive); with LXFL 529 it was 7.36 µM (inactive); in the assay on M19-MEL, 12.4 µM (inactive); in the assay on SNB-78, 6.32 µM (inactive); in the assay with XF498, 11.8 µM (inactive).
Regarding `C/C(=N\Nc1nc2ccccc2s1)c1cnccn1`, the GI50 with T47D was 0.769 µM (active).
Take `COC(=O)[C@@]1(C)C(=O)CC[C@@H]1C=O`: the GI50 in the assay on DMS-114, with KM-20L2, in the assay on LXFL 529, in the assay with M19-MEL, with SNB-78 and in the assay with XF498 was > 100 µM (inactive) throughout.
In the case of `CC1OC(c2ccc3c(c2O)C(=O)C2=C(C3=O)C3(O)C(=O)CC(C)(O)CC3(O)C=C2)CC(O)C1O` (stereo not given), the GI50 in the assay with T47D was 11.5 µM (inactive).
As to `CC(C)[Si](OC1=CCC[C@H]2NC(=O)[C@@H](Cc3ccc([N+](=O)[O-])cc3)[C@@]12C)(C(C)C)C(C)C`, the GI50 in the assay on T47D was 4.73 µM (inactive).
Consider `CC1CN(CCO)CCN1c1ccccc1` (stereo not given), for which, in the assay on T47D, the GI50 is > 100 µM (inactive).
Turning to `COC(=O)c1nc(C(=O)OC)c2c([nH]c3ccccc32)c1C(=O)OC`, the GI50 is 49.3 µM (inactive) in the assay with DMS-114; < 0.01 µM (active) in the assay with HOP-18; 74.5 µM (inactive) with LXFL 529; > 100 µM (inactive) in the assay with SNB-78; 35.2 µM (inactive) in the assay with XF498.
For the compound `C=Cc1c(C)c(O)cc2c1-c1ccc(O)c(C)c1CC2`, the GI50 in the assay on T47D was 10.9 µM (inactive).
For `CN(N=O)C(=O)N[C@H]1C(O)O[C@H](CO)[C@@H](O)[C@@H]1O` (stereo not given in full), the GI50 with DMS-114 is 504 µM (inactive); in the assay on HOP-18 it was 222 µM (inactive); with KM-20L2, > 750 µM (inactive); in the assay with LXFL 529 it was > 750 µM (inactive); in the assay on M19-MEL, 475 µM (inactive); in the assay on SNB-78, 545 µM (inactive). For the same compound, the GI50 in the assay with T47D is 611 µM (inactive); with XF498, 557 µM (inactive).
In the case of `C=C1CCC(O)C/C1=C/C=C1\CCCC2(C)C1CCC2C(C)CCCC(C)C` (stereo not given), the GI50 with T47D was 19 µM (inactive).
In the case of `CCCCCC(/C=C/[C@@H]1[C@H]2CC(=O)O[C@H]2C[C@H]1N1CCOCC1)OC1CCCO1` (stereo not given in full), the GI50 in the assay with DMS-114, in the assay with HOP-18, with KM-20L2, with LXFL 529, with M19-MEL and in the assay with SNB-78 was > 100 µM (inactive) in each case.
In the case of `CCN(CC)CC(O)C1CCC(c2ccccc2)CC1` (stereo not given), in the assay on T47D, the GI50 is 26.9 µM (inactive).
Take `N#Cc1c(O)n(-c2ccccc2)c(=O)c2c(N)n[nH]c12`: the GI50 in the assay with T47D is > 100 µM (inactive).
Take `O=C(Nn1c(-c2ccccc2)nc2ccccc2c1=O)c1ccc([N+](=O)[O-])cc1`: the GI50 in the assay on T47D was > 100 µM (inactive).
Turning to `CC(=O)Nc1ccc(S(=O)(=O)Nc2cnc3ccccc3n2)cc1`, the GI50 in the assay on DMS-114, in the assay on HOP-18, in the assay on KM-20L2, in the assay on LXFL 529, with M19-MEL and in the assay on XF498 was > 100 µM (inactive) in each case.
Take `CCO/C(Cc1ccc(Cl)cc1)=N/NC(N)=S`: the GI50 with T47D was 27.8 µM (inactive).
Consider `COc1ccc(C(OCC2OC(n3cnc4c(=O)n(Cc5ccccc5[N+](=O)[O-])nnc43)C(O)C2O)(c2ccccc2)c2ccc(OC)cc2)cc1` (stereo not given), for which the GI50 in the assay with T47D is 11.5 µM (inactive).
On the same count and under the same terms, the same measure for `COc1ccc(-c2nc(N)c(C#N)c3c2CCSc2ccc(C)cc2-3)cc1OC`: 4.17 µM (inactive).
Turning to `Cc1ccc(C)c(NC(=O)CC/C(=N\NC(=O)C(=O)NN)C(C)C(=O)c2ccc(O)cc2)c1` (stereo not given), the GI50 with HOP-18, in the assay with KM-20L2, in the assay with LXFL 529, in the assay on M19-MEL and with SNB-78 was > 100 µM (inactive) each time.
Regarding `N#CC(C#N)/N=C/c1ccncc1`, the GI50 with T47D is > 100 µM (inactive).
For the compound `CC(=O)NNc1nc(C)c(C(=O)/C=C/C=C/c2ccccc2)s1`, in the assay with T47D, the GI50 was 33.2 µM (inactive).
For `C1COCCOP2(N3CC3)=NP(N3CC3)(=NP(N3CC3)(N3CC3)=N2)OCCOCCO1` (stereo not given), the GI50 with T47D is 70.3 µM (inactive).
Same read-out and setting: the value for `C[N+](C)(C)CC1CCCCCCCCCCC1=O` (stereo not given) was > 100 µM (inactive); that for `Nc1nc(Cl)c(N)c(NCC2(CO)CC(Cc3ccccc3)C2)n1` (stereo not given) was 0.923 µM (active).
As for `COC(=O)/C(=N\Nc1nc(S)nn1N)C(C#N)c1ccccc1` (stereo not given), the GI50 with HOP-18, in the assay with KM-20L2, in the assay on LXFL 529, in the assay with M19-MEL and with SNB-78 was > 100 µM (inactive) throughout.
As to `CC(=O)O[C@H]1CC[C@@H](OC(C)=O)[C@H]2[C@H](O)[C@H](O)[C@@H]1n1c(=O)n(-c3ccccc3)c(=O)n12`, the GI50 in the assay with T47D was > 100 µM (inactive).
Still for that read-out and setting: the same measure for `O=C1C[S+]([O-])C23c4cc5ccccc5n4CCC2CCCN13` (stereo not given): > 100 µM (inactive); for `CC(=O)O[C@H]1[C@@H](N2CCCCC2)C[C@H]2[C@@H]3CC=C4C[C@@H](N5CCCC5)CC[C@]4(C)[C@H]3CC[C@@]21C`: > 100 µM (inactive).
With `CC(C)CCC[C@@H](C)C1CCC2[C@@H]3CCC4C[C@@H](NS(C)(=O)=O)CC[C@]4(C)C3CC[C@@]21C` (stereo not given in full), the GI50 in the assay with T47D is > 100 µM (inactive).
Consider `O=C1c2ccccc2C(=O)c2c(NCCNCCO)ccc(O)c21`, for which the GI50 is 4.59 µM (inactive) in the assay on DMS-114; 9.27 µM (inactive) in the assay on HOP-18; 2.94 µM (inactive) in the assay on KM-20L2; 3.69 µM (inactive) with LXFL 529; 2.82 µM (inactive) in the assay on M19-MEL; 4.61 µM (inactive) in the assay on SNB-78. In the assay on XF498, the GI50 is 4.89 µM (inactive).
Turning to `Cc1ccc(C(=O)/C=C/N2CCN(c3cccc(C(F)(F)F)c3)CC2)cc1`, the GI50 with T47D is 20.1 µM (inactive).
As to `NCCOCn1cc(Cc2cccc(OCc3ccccc3)c2)c(=O)[nH]c1=O`, the GI50 with DMS-114 was 77.1 µM (inactive); in the assay with HOP-18, > 100 µM (inactive); in the assay on KM-20L2, > 100 µM (inactive); in the assay on LXFL 529 it was > 100 µM (inactive); in the assay on SNB-78, > 100 µM (inactive).
`COc1cc2c(cc1OCc1ccccc1)NC(=O)[C@@H]1C[C@@H](O)CN1C2=O`: in the assay on T47D, the GI50 was > 100 µM (inactive).
Regarding `O=C1C/C(=C/c2ccc(/C=C3/CC(=O)N(c4cccc(Br)c4)C3=O)cc2)C(=O)N1c1cccc(Br)c1`, the GI50 in the assay with DMS-114 is > 100 µM (inactive); in the assay with HOP-18, > 100 µM (inactive); with KM-20L2, > 100 µM (inactive); in the assay on LXFL 529, > 100 µM (inactive); in the assay with M19-MEL it was > 100 µM (inactive); with SNB-78, 36.2 µM (inactive). The GI50 in the assay on XF498 is 26.5 µM (inactive).
For `O=C(/C=C/c1ccccc1)c1ccc(NCc2nc3ccccc3[nH]2)cc1`, the GI50 was 2.56 µM (inactive) in the assay with DMS-114; 2.34 µM (inactive) in the assay on HOP-18; 2.9 µM (inactive) in the assay on KM-20L2; 2.83 µM (inactive) with LXFL 529; 4.41 µM (inactive) in the assay on M19-MEL; 4.9 µM (inactive) with SNB-78. Further, in the assay on XF498, the GI50 is 7.6 µM (inactive).
Turning to `COc1cnc2cc(C(=O)O)c3c([N+](=O)[O-])cccc3c2c1`, the GI50 in the assay with T47D is > 100 µM (inactive).
On the same count and under the same terms, the same measure for `O=C1C=C(c2ccccc2)O/C1=C/C(=O)c1ccc(Cl)cc1`: > 10 µM (inactive).
As to `O=C(/C=C/c1ccsc1)c1ccc(Cl)cc1`, the GI50 with T47D is 74.8 µM (inactive).
On to `CCOC(=O)[C@@]12NN=N[C@@H]1[C@H]1CO[C@H](c3ccccc3)N1C2=O`, for which the GI50 with T47D was 5.22 µM (inactive).
Take `N#Cc1c(-c2ccco2)cc(-c2ccc(NCc3nc4ccccc4[nH]3)cc2)nc1N`: the GI50 in the assay with HOP-18 is 24.4 µM (inactive); in the assay on LXFL 529 it was 17.9 µM (inactive); in the assay on M19-MEL, 25.1 µM (inactive).
For the compound `Cc1cc(=O)n2nc(CSc3nnc(Sc4cc(O)ccc4O)s3)sc2n1`, the GI50 with T47D was 32.1 µM (inactive).
For `Oc1ccccc1-n1nc2ccc3nonc3c2n1`, the GI50 in the assay with T47D was > 100 µM (inactive).
The same measure, in the same setting: the same measure for `C/N=C(N)/N=C(\N)Nc1cc2ccccc2c2ccccc12`: 14.8 µM (inactive).
For `CCN(CC)CC(=O)/C=C/c1ccc(C)cc1`, the GI50 in the assay with DMS-114 was 21.9 µM (inactive); in the assay with HOP-18 it was 23.2 µM (inactive); in the assay with KM-20L2, 20.6 µM (inactive); with LXFL 529, 18.6 µM (inactive); in the assay on M19-MEL, 17.6 µM (inactive); in the assay on SNB-78, 51.8 µM (inactive). The GI50 with XF498 is 31 µM (inactive).
For `Nc1nc(N)c2ncn(CC3CCC(CO)C3)c2n1` (stereo not given), the GI50 in the assay with T47D is > 100 µM (inactive).
`CCCNC(=O)CCC(C)[C@H]1CCC2C3C(C[C@H](OC(C)=O)[C@@]21C)[C@@]1(C)CCC2(C[C@H]1C[C@H]3OC(C)=O)OOC1(CCCCC1)OO2` (stereo not given in full): the GI50 in the assay on T47D is 2.11 µM (inactive).
Regarding `O[C@@H]1C=C[C@]23CCN(Cc4cc5c(cc42)OCO5)[C@@H]3C1`, the GI50 in the assay on T47D was 39.1 µM (inactive).
